Entries after “also recorded” stand apart in the source; their conditions may differ.
How the values were obtained:
[1] = test system: inflamed colonic mucosa from ulcerative colitis patients; assay: Ex-vivo colon biopsy culture from ulcerative colitis patients, cytokine release (Protocol 1); format: cell-based, human; settings: UC donors 1 and 2; PF-02545920 0.1 μM and 1 μM, TAK-063 1 uM; 24 h; vs DMSO vehicle
Experimental: The effect of selective PDE10A inhibition was tested on inflamed colonic mucosa from ulcerative colitis patients taken during routine endoscopy (Protocol 1 detailed below). These samples retain a disease phenotype in ex-vivo culture, secrete high basal levels of inflammatory cytokines, and represent a highly relevant and translational disease model. The effect of the PDE10A inhibitors on levels of the inflammatory cytokines IL-6 and IL-8 released from these tissue samples were measured. Both IL-6 and IL-8 are key regulators in ulcerative colitis pathology and their levels correlate with disease severity (Waldner M J et al. Master regulator of intestinal disease: IL-6 in chronic inflammation and cancer development. Semin Immunol. 26(1), 75-9 (2014); Bernardo D et al. IL-6 promotes immune responses in human ulcerative colitis and induces a skin-homing phenotype in the dendritic cells and T-cells they stimulate. Eur J Immunol. 42(5), 1337-53 (2012); Pearl D S, Cytokine mucosal expression in ulcerative colitis, the relationship between cytokine release and disease activity. J Crohns Colitis. 7(6), 481-9 (2013)).
These colon biopsies retain an inflammatory phenotype and secrete high levels of inflammatory cytokines in ex-vivo culture.
(§1) Biopsy tissue was obtained from inflamed colonic mucosa from ulcerative colitis or Crohn's disease patients during routine endoscopy. Ex-vivo biopsy cultures for the analysis of inflammatory cytokine biomarkers were run as previously described (Vossenkämper A. et al. A CD3- specific antibody reduces cytokine production and alters phosphoprotein profiles in intestinal tissues from patients with inflammatory bowel disease. Gastroenterology, 147, 172-183 (2014)). Biopsies were incubated in organ culture for 24 h with the addition of positive control compounds, or specific PDE10A inhibitors. Supernatants collected at the end of the experiment were snap-frozen and stored at −70° C. For the measurement of cytokines, the frozen culture supernatants were thawed and analysed for levels of the inflammatory cytokines using Luminex cytokine assay kits (R&D Systems) and an R&D Systems MAGPIX® analyser. Mean values ±SDs were calculated for the levels of spontaneous cytokine production measured in biopsy culture supernatants from each treatment group.

other PDE family members = settings: read-out: IC50s for other PDE family members; literature value; cited from earlier work
[2] = test system: inflamed colonic mucosa from pharmacotherapy treatment-refractory ulcerative colitis patients; assay: Ex-vivo culture of inflamed colon tissue from surgical resection of treatment-refractory UC patients, TNFα release (Protocol 2); format: cell-based, human; settings: 1 μM; UC donors 4 and 5; with SEB; about 18 hours; vs DMSO vehicle
[3] = test system: inflamed colonic mucosa from Crohn's Disease patients; assay: Ex-vivo colon biopsy culture from Crohn's disease patients, cytokine release (Protocol 1); format: cell-based, human; settings: 0.1 uM; 2 independent CD patient biopsies; vs DMSO vehicle; listed as PF-2545920
Experimental: In addition, we tested the effect of selective PDE10A inhibition using 0.1 uM PF-2545920 on inflamed colonic mucosa from Crohn's Disease patients taken during routine endoscopy (Protocol 1).
as §1

[4] = test system: isolated human neutrophil; assay: In vitro assay of IL-8 neutrophil activation; format: cell-based

Row | SMILES | secreted levels of IL-6 [1] | secreted levels of IL-8 [1] | IC50 (other PDE family members) [nM] | secreted levels of TNFα [2] | secreted levels of IL-6 [3] | secreted levels of IL-8 [3] | IL-8 induced neutrophil activation [4]
1 | COc1cn(-c2ccc(-n3cccn3)cc2F)nc(-c2ccnn2-c2ccccc2)c1=O [TAK-063, 1-[2-fluoro-4-(1H-pyrazol-1-yl)phenyl]-5-methoxy-3-(1-phenyl-1H-pyrazol-5-yl)pyridazin-4(1H)-one, reference compound] | inhibiting; also recorded: significantly reduced | inhibiting; also recorded: significantly reduced | > 5000 | – | – | – | –
2 | Cn1cc(-c2ccncc2)c(-c2ccc(OCc3ccc4ccccc4n3)cc2)n1 [PF-02545920] | inhibiting; also recorded: significantly reduced | inhibiting; also recorded: significantly reduced | > 1000 | inhibiting; also recorded: significantly reduced | inhibits; also recorded: significantly reduced | inhibits; also recorded: significantly reduced | dose dependently inhibited
